We go through 2 compounds from US6649654B1, “Methods for identifying and using IKK inhibitors” (The Regents of the University of California, priority 1999, dated 2003).

Structures are written as SMILES.

One assay relates to wild-type IKKβ. Put plainly: 2XNFκB-LUC reporter in HeLa cells with NIK and wild-type IKKβ. The conditions noted are these: luciferase at 24 hours, FIG. 6E. Format: cell-based. The method, then:
(§1) Recombinant IKKβ(C179A) was also resistant to concentrations of 15dPGJ2 that were inhibitory to wild-type IKKβ (as shown in FIG. 6D), and also to PGA1. An NF-κB dependent transcriptional reporter (2XNFκB-LUC) was preincubated with expression vector encoding either wild-type IKKβ or IKKβ(C179A). A NIK expression vector was included to ensure maximal IKK activation. […] FIG. 6E provides the results for HeLa cells transiently transfected with a 2×NF-κB-LUC reporter, a NIK expression vector and expression vectors for wild type IKKβ or IKKβ(C179A). At 3 hours post-transfection, cells were treated with 15dPGJ2 and at 24 hours, the luciferase activities were determined for duplicate samples. In each case, the maximal activity achieved in the absence of inhibitor was given an arbitrary value of 100% and the other values were calculated relative to this one.

The target of assay [1] is T1, IKKβ(C179A) (Homo sapiens, UniProt O14920, C179A).
T1 sequence (O14920 1-756 C179A): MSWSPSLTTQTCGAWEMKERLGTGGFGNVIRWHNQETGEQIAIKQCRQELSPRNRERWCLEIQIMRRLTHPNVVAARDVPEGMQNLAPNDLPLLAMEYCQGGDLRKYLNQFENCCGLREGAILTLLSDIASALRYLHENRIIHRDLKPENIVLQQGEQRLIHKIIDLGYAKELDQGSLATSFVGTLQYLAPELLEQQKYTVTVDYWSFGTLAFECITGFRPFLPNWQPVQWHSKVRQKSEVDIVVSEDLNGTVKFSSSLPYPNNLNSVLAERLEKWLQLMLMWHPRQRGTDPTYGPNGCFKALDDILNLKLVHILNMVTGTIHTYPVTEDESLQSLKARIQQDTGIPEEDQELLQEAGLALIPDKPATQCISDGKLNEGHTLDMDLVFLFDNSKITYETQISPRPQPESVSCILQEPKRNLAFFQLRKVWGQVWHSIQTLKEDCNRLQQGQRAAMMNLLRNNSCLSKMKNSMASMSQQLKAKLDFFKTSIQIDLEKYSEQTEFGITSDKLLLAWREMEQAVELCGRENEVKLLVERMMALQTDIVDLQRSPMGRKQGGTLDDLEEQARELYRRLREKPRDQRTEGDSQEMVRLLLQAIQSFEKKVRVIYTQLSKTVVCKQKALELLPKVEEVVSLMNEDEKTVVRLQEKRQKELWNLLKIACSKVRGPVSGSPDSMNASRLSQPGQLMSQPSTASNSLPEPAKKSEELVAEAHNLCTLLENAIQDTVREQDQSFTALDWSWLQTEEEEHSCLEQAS
Put plainly: IKKβ(C179A) coexpressed with NIK in HeLa cells, kinase activity. Format: cell-based. As to conditions: HeLa cells coexpressing NIK, treated 2 hours. The method, then: In an experiment to determine whether this cysteine is critical for sensitivity to cyPG, cysteine was replaced with an alanine using site-directed mutagenesis. In these experiments, HeLa cells were transiently transfected with expression vectors for IKKβ(WT) or IKKβ(C179A) with or without a NIK expression vector. After 16 hours, NIK transfected cells were treated for 2 hours with 15dPGJ2. Kinase activity (KA) and expression (IB:HA) were subsequently determined. Thus, wild-type (WT) IKKβ and mutant IKKβ (i.e., IKKβ(C179A)) were coexpressed with NIK in HeLa cells and their sensitivity to 15dPGJ2 examined. While both constructs were equally responsive to NIK, resulting in similar levels of kinase activity, the IKKβ(C179A) mutant was resistant to inhibitor (See, FIG. 6C).

Assay [2] addresses T1, IKKβ(C179A). Put plainly: 2XNFκB-LUC reporter in HeLa cells with NIK and IKKβ(C179A). It counts as cell-based. Also noted: FLAG; made in house. The conditions noted are these: luciferase at 24 hours, FIG. 6E. The method, then: as §1
The test system of assay [3] is carrageenin-induced pleurisy. As to conditions: rats, endogenous and exogenous 15dPGJ2; Gilroy et al.; cited from earlier work.
The next assay concerns the target T2, IKKα (Homo sapiens, UniProt O14920+O15111).
T2 construct: expressed in transfected cells; host or cells: COS
Put plainly: NIK-induced HA-tagged IKKα associated kinase activity in COS cells. It counts as cell-based. As to conditions: PGA1 added immediately after or 18 hours after transfection. The method, then: Cells used in the experiments described herein were cultured in either RPMI 1640 (Jurkat cells) or DMEM (HeLa and COS cells), supplemented with 10% FBS and antibiotics. Cells were stimulated with either 25 ng/ml TPA, 20 ng/ml recombinant TNFα, or 10 ng/ml interleukin 1β (Sigma). PGA1, 15dPGJ2, T×B2, LTB4, AA and other PGs (Cayman) dissolved in ethanol were used as well, as known in the art (See e.g., Rossi et al., 94:746-750 [1997]). Controls received equal amounts of ethanol. Transfections were performed using Lipofectamine Plus (GIBCO) for HeLa and COS cells and DEAE-dextran (Sigma) for Jurkat cells. Xpress-tagged NIK, Xpress-tagged MEKK1, HA-tagged IKKα, and HA-tagged IKKβ were also used (See e.g., Zandi et al., Science 281:1360-1363 [1998]; and Delhase et al., Science 284:309-313 [1999]). COX2 and cPLA2 expression vectors were obtained from Dr. L. Feng (See also, Hirose et al., J. Am. Soc. Nephrol., 9:408-416 [1998]). PGD synthase was cloned from HT29 colon carcinoma cell line cDNA by PCR and subcloned into a pCDNA3 vector. […]
Cell lysates were incubated with anti-IKKα (Pharmingen), anti-HA (12CA5; Pharmingen), anti-JNK1 (333.8; Pharmingen), or anti-p38 (New England Biolabs) for 2 hours. […] Endogenous IKK, HA-tagged IKKα, endogenous JNK1, and p38 activities were determined with GST-1κBα(1-54), GST-c-Jun(1-79), and GST-ATF2 as substrates.

T2 sequence (O15111 whole entry): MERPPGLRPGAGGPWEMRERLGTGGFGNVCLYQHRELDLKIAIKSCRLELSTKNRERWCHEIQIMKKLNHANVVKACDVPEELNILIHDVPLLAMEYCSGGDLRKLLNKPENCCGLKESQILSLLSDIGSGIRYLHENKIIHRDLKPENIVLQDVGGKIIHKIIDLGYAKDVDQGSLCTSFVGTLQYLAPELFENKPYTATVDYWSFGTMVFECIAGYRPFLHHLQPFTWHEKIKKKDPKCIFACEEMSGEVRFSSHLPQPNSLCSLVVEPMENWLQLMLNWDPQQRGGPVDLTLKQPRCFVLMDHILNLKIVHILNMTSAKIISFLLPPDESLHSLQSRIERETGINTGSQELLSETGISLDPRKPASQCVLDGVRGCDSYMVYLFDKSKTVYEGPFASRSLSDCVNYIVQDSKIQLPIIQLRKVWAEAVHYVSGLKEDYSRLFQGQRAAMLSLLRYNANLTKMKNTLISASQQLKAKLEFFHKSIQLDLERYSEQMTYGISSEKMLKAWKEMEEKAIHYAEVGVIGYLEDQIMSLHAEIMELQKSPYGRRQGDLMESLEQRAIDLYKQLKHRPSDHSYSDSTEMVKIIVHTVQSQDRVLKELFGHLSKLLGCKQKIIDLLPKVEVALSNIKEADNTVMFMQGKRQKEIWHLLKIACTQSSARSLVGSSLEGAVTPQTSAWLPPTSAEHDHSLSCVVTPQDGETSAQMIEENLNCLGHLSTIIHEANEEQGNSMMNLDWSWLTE
T2 sequence (O14920 whole entry): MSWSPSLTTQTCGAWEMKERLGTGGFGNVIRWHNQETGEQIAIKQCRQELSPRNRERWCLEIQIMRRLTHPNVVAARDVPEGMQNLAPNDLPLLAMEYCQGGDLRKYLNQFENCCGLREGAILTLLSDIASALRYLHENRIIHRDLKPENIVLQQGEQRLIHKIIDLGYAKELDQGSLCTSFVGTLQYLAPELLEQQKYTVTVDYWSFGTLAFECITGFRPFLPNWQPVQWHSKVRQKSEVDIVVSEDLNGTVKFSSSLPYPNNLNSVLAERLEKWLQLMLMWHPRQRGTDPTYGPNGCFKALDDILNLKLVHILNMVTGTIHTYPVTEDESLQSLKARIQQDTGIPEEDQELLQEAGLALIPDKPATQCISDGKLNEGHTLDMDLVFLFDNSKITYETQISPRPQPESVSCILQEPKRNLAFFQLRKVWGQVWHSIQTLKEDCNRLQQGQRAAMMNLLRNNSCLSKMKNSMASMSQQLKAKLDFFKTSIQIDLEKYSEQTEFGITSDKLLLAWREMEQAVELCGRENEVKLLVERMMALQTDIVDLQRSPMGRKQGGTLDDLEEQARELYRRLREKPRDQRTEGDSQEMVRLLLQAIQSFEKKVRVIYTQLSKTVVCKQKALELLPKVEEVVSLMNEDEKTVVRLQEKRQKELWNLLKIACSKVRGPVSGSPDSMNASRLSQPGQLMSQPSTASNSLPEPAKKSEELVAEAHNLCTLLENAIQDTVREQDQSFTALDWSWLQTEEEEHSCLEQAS
T2 sequence (Q9Y6K9 whole entry partner): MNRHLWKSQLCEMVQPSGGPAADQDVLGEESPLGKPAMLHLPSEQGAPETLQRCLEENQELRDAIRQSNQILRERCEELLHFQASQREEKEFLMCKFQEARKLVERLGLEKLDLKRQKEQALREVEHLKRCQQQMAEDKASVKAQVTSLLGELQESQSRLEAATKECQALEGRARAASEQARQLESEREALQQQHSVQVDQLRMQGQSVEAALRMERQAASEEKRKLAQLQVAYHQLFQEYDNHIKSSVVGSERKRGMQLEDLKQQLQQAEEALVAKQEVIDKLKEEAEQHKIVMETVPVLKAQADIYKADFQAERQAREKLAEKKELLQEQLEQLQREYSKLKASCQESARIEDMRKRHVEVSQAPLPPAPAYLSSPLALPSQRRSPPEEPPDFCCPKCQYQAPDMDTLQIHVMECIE

Turning to `CCCCC/C=C/C=C1/C(=O)C=C[C@@H]1C/C=C\CCCC(=O)O` [15dPGJ2, 15-deoxy-Δ^12-14-PGJ2], the “sensitivity of NF-κB transcriptional activity through wild-type IKKβ” value in the assay on wild-type IKKβ is “highly sensitive”. At IKKβ(C179A) [1], the “sensitivity of IKKβ(C179A) kinase activity to inhibitor” value is reported as “resistant”. Further, on IKKβ(C179A) [2], the “sensitivity of NF-κB activation through IKKβ(C179A)” value is recorded as “insensitive”. Also, in assay [3], the anti-inflammatory effect result is listed as “anti-inflammatory effect”.

`CCCCC[C@H](O)/C=C/[C@H]1C=CC(=O)C1CCCCCCC(=O)O` (some centres unmarked) [PGA1, prostaglandin A1]: the “effect on NIK-induced IKK activity (HA-IKKα)” value on IKKα was “inhibited”.
